Reference: ChEMBL document CHEMBL1201862, “PubChem BioAssay data set” (2004)
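1) Cells in 96-well plates. 2) Compound, 48 h, 5 concentrations. 3) Linear interpolation between surrounding doses. 4) Unreached endpoint = highest concentration. GI50 marks 50% less growth.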 The source made the active and inactive calls. No stated cut-off is given here; in the data, active = GI50 up to about 1.1 µM and inactive = higher.

Assays:
Test in all cases: inhibition of tumour cell growth, NCI panel, 48 h
[1] = system: MOLT-4
[2] = system: NCI-H522
[3] = system: SN12C
[4] = system: SNB-75
[5] = system: OVCAR-8
[6] = system: HCT-116
[7] = system: HOP-62
[8] = system: CCRF-CEM
[9] = system: KM12
[10] = system: EKVX
[11] = system: SR
[12] = system: SF-539
[13] = system: SW-620
[14] = system: ACHN
[15] = system: U-251
[16] = system: SF-295
[17] = system: K562
[18] = system: HCT-15
[19] = system: MDA-N
[20] = system: TK-10
[21] = system: A498
[22] = system: RXF 393
[23] = system: RPMI-8226
[24] = system: COLO 205
[25] = system: NCI-H23
[26] = system: HOP-92
[27] = system: MCF7
[28] = system: NCI-H460
[29] = system: HL-60
[30] = system: UACC-257
[31] = system: M14
[32] = system: UO-31
[33] = system: CAKI-1
[34] = system: OVCAR-5
[35] = system: SK-MEL-5
[36] = system: MDA-MB-231
[37] = system: SNB-19
[38] = system: UACC-62
[39] = system: BT-549
[40] = system: HT-29
[41] = system: OVCAR-4
[42] = system: IGROV-1
[43] = system: NCI-H226
[44] = system: A549
[45] = system: SK-MEL-2
[46] = system: MDA-MB-435
[47] = system: OVCAR-3
[48] = system: Malme-3M
[49] = system: 786-0
[50] = system: HCC 2998
[51] = system: PC-3
[52] = system: Hs-578T
[53] = system: NCI/ADR-RES
[54] = system: SF-268
[55] = system: DU-145

C(=N\C12CC3CC(CC(C3)C1)C2)/C1CCCCC1
GI50 [1]: > 100 µM (inactive) | GI50 [2]: > 100 µM (inactive) | GI50 [3]: > 100 µM (inactive) | GI50 [4]: > 100 µM (inactive) | GI50 [5]: > 100 µM (inactive) | GI50 [6]: > 100 µM (inactive) | GI50 [7]: > 100 µM (inactive) | GI50 [8]: > 100 µM (inactive) | GI50 [9]: > 100 µM (inactive) | GI50 [10]: > 100 µM (inactive) | GI50 [11]: > 100 µM (inactive) | GI50 [12]: > 100 µM (inactive) | GI50 [13]: > 100 µM (inactive) | GI50 [14]: > 100 µM (inactive) | GI50 [15]: > 100 µM (inactive) | GI50 [16]: > 100 µM (inactive) | GI50 [17]: > 100 µM (inactive) | GI50 [18]: > 100 µM | GI50 [19]: > 100 µM (inactive) | GI50 [20]: > 100 µM (inactive) | GI50 [21]: > 100 µM (inactive) | GI50 [22]: > 100 µM (inactive) | GI50 [23]: > 100 µM (inactive) | GI50 [24]: > 100 µM (inactive) | GI50 [25]: > 100 µM (inactive) | GI50 [26]: > 100 µM (inactive) | GI50 [27]: > 100 µM (inactive) | GI50 [28]: > 100 µM (inactive) | GI50 [29]: > 100 µM (inactive) | GI50 [30]: > 100 µM (inactive) | GI50 [31]: > 100 µM (inactive) | GI50 [32]: > 100 µM (inactive) | GI50 [33]: > 100 µM (inactive) | GI50 [34]: > 100 µM (inactive) | GI50 [35]: > 100 µM (inactive) | GI50 [36]: > 100 µM (inactive) | GI50 [37]: > 100 µM (inactive) | GI50 [38]: > 100 µM (inactive) | GI50 [39]: > 100 µM (inactive) | GI50 [40]: > 100 µM (inactive) | GI50 [41]: > 100 µM (inactive) | GI50 [42]: > 100 µM (inactive) | GI50 [43]: > 100 µM (inactive) | GI50 [44]: > 100 µM (inactive) | GI50 [45]: > 100 µM (inactive) | GI50 [46]: > 100 µM (inactive) | GI50 [47]: > 100 µM (inactive) | GI50 [48]: > 100 µM (inactive) | GI50 [49]: > 100 µM (inactive) | GI50 [50]: > 100 µM (inactive) | GI50 [51]: > 100 µM (inactive) | GI50 [52]: > 100 µM (inactive) | GI50 [53]: > 100 µM (inactive) | GI50 [54]: > 100 µM (inactive) | GI50 [55]: > 100 µM (inactive)
